Where “and” joins values, the source holds several entries; their conditions need not be identical. Identical values can stand only once. Like-named read-outs stand apart in the source and are kept apart here.
What was measured:
human plasma IgG1 = target: T1, human plasma IgG1 (Homo sapiens, UniProt P01857); test: Fluorescence anisotropy binding, Oregon Green labeled peptide
T1 construct: the individual human plasma IgG isoforms: IgG1, IgG2, IgG3, or IgG4; purchased Calbiochem; host or cells: human plasma
T1 sequence (P01857 1-330 isoform P01857-1): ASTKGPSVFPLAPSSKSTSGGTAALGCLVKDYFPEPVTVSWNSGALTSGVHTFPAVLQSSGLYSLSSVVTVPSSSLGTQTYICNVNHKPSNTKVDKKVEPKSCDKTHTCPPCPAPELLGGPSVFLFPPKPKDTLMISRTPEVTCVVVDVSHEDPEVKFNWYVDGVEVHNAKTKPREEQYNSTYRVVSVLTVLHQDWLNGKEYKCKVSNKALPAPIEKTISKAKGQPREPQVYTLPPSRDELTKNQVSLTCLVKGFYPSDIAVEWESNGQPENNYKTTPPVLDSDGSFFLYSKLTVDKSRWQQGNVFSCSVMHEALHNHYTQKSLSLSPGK
Procedure: (§1) Peptides were synthesized by BACHEM and then Oregon Green labeled and HPLC purified. Binding studies were performed using human plasma IgG isoforms: IgG1, IgG2, IgG3, and IgG4, obtained from Calbiochem.
(§2) Binding studies were carried out at either pH 4.0, 7.5, or 9.5, with or without salt in the following buffers:
(§3) 2) 10 mM Sodium Citrate, 500 mM Sodium Chloride, 0.01% Tween 20, pH 4.0;
(§4) 4) […], 500 mM Sodium Chloride, 0.01% Tween 20, pH 7.5;
(§5) 5) 10 mM Sodium Bicarbonate, 0.01% Tween 20, pH 9.5;
(§6) 6) 10 mM Sodium Bicarbonate, 500 mM Sodium Chloride, 0.01% Tween 20, pH 9.5; or […]

human plasma IgG4 = target: T2, human plasma IgG4 (Homo sapiens, UniProt P01861); test: as above
T2 construct: the individual human plasma IgG isoforms: IgG1, IgG2, IgG3, or IgG4; purchased Calbiochem; host or cells: human plasma
T2 sequence (P01861 1-327 isoform P01861-1): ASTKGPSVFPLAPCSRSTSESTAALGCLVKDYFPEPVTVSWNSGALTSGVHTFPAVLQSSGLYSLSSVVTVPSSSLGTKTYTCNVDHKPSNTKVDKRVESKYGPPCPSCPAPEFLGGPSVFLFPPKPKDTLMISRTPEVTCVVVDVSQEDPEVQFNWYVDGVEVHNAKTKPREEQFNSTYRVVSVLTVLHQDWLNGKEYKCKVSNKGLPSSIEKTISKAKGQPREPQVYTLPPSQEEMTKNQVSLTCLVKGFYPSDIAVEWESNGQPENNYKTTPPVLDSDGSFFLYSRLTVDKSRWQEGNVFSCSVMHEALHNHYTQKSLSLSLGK
Procedure: as §1, §2, §3, §4, §5, §6

human plasma IgG3 = target: T3, human plasma IgG3 (Homo sapiens, UniProt P01860); test: as above
T3 construct: the individual human plasma IgG isoforms: IgG1, IgG2, IgG3, or IgG4; purchased Calbiochem; host or cells: human plasma
T3 sequence (P01860 1-377 isoform P01860-1): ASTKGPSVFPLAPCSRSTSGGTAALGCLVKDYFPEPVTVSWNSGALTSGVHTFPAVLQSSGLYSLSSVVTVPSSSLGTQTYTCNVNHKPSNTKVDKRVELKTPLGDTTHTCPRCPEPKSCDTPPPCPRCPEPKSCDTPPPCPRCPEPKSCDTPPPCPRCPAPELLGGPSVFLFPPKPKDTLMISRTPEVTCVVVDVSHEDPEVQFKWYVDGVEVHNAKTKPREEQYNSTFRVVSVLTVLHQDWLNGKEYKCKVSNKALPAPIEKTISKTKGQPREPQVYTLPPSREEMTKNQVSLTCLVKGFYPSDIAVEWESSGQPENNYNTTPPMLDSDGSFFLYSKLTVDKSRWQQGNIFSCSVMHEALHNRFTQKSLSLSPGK
Procedure: as §1, §2, §3, §4, §5, §6

human plasma IgG2 = target: T4, human plasma IgG2 (Homo sapiens, UniProt P01859); test: as above
T4 construct: the individual human plasma IgG isoforms: IgG1, IgG2, IgG3, or IgG4; purchased Calbiochem; host or cells: human plasma
T4 sequence (P01859 1-326 isoform P01859-1): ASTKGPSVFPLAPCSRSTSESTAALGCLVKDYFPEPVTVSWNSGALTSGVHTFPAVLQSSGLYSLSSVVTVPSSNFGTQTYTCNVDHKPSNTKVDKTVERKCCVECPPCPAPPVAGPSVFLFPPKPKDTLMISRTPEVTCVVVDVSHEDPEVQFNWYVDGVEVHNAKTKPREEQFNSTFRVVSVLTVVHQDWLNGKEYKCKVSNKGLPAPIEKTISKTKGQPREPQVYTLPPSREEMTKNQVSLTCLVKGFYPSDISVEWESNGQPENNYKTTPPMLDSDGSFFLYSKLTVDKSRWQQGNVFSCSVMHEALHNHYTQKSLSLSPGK
Procedure: as §1, §2, §3, §4, §5, §6

human IgG = test: Static (filterplate) binding capacity
Procedure: These media were used to determine the effect of ligand density on human IgG binding capacity in both static (filterplate) and dynamic (mini-column) modes with commercial immobilized recombinant Protein A (Repligen, IPA400) at a single density as control. Actual ligand densities obtained ranged from 0.17 to 3.2 μmole/ml media as confirmed by quantitative amino acid analysis.
After incubation of the samples, with shaking, at room temperature for one hour, the supernatant liquid from each well, containing unbound IgG, was collected by centrifugation into the cognate well of a collection plate. The assay plate was washed three times with PBST (200 μl/wash) and bound IgG was eluted from the media samples by incubation for 30-60 minutes at room temperature in 100 μl Elution Buffer (100 mM CAPS, pH 11.5). Eluates were collected by centrifugation for analysis. Protein concentrations were determined from A280 measurements and plotted as a function of mg human IgG bound per ml resin vs. mg human IgG applied per ml resin.
The amount of IgG captured (estimated from IgG recovered in the elution step) by the various media is dependent upon both the IgG concentration and the ligand density. […] Under these static conditions, where both ligand and target concentrations are close to KD values, equilibrium binding is established and total capacities cannot be accurately determined. However, over the IgG range of 0 to 25 mg IgG applied per ml resin (0 to 2.5 mg/ml target added to 10 μl of resin), capture of IgG is linear. Beyond this point, up to a level of 200 mg IgG applied per ml resin, saturation becomes more pronounced.

[1] = 10 nM Tris-HCl, 500 mM Sodium Chloride, pH 7.5, read-out: KD (μM) IgG1 pH 7.5 + salt
[2] = 10 mM Sodium Bicarbonate, 500 mM Sodium Chloride, pH 9.5, read-out: KD (μM) IgG1 pH 9.5 + salt
[3] = 10 mM Sodium Bicarbonate, pH 9.5, read-out: KD (μM) IgG1 pH 9.5 − salt
[4] = 10 mM Sodium Citrate, 500 mM Sodium Chloride, pH 4.0, read-out: KD (μM) IgG1 pH 4.0 + salt
[5] = 10 mM Sodium Citrate, pH 4.0, read-out: KD (μM) IgG1 pH 4.0 − salt
[6] = TBS, 0.01% Tween 20, pH 7.5, read-out: KD (μM) IgG1 TBS
[7] = 10 nM Tris-HCl, 500 mM Sodium Chloride, pH 7.5, read-out: KD (μM) IgG4 pH 7.5 + salt
[8] = 10 mM Sodium Bicarbonate, 500 mM Sodium Chloride, pH 9.5, read-out: KD (μM) IgG4 pH 9.5 + salt
[9] = 10 mM Sodium Bicarbonate, pH 9.5, read-out: KD (μM) IgG4 pH 9.5 − salt
[10] = 10 mM Sodium Citrate, 500 mM Sodium Chloride, pH 4.0, read-out: KD (μM) IgG4 pH 4.0 + salt
[11] = 10 mM Sodium Citrate, pH 4.0, read-out: KD (μM) IgG4 pH 4.0 − salt
[12] = TBS, 0.01% Tween 20, pH 7.5, read-out: KD (μM) IgG4 TBS
[13] = 10 mM Sodium Bicarbonate, 500 mM Sodium Chloride, pH 9.5, read-out: KD (μM) IgG3 pH 9.5 + salt
[14] = 10 mM Sodium Bicarbonate, pH 9.5, read-out: KD (μM) IgG3 pH 9.5 − salt
[15] = 10 mM Sodium Citrate, 500 mM Sodium Chloride, pH 4.0, read-out: KD (μM) IgG3 pH 4.0 + salt
[16] = 10 mM Sodium Citrate, pH 4.0, read-out: KD (μM) IgG3 pH 4.0 − salt
[17] = 10 mM Tris-HCl, pH 7.5, read-out: KD (μM) IgG3 pH 7.5 − salt
[18] = TBS, 0.01% Tween 20, pH 7.5, read-out: KD (μM) IgG3 TBS
[19] = 10 nM Tris-HCl, 500 mM Sodium Chloride, pH 7.5, read-out: KD (μM) IgG2 pH 7.5 + salt
[20] = 10 mM Sodium Bicarbonate, 500 mM Sodium Chloride, pH 9.5, read-out: KD (μM) IgG2 pH 9.5 + salt
[21] = 10 mM Sodium Bicarbonate, pH 9.5, read-out: KD (μM) IgG2 pH 9.5 − salt
[22] = 10 mM Sodium Citrate, 500 mM Sodium Chloride, pH 4.0, read-out: KD (μM) IgG2 pH 4.0 + salt
[23] = 10 mM Sodium Citrate, pH 4.0, read-out: KD (μM) IgG2 pH 4.0 − salt
[24] = 10 mM Tris-HCl, pH 7.5, read-out: KD (μM) IgG2 pH 7.5 − salt
[25] = TBS, 0.01% Tween 20, pH 7.5, read-out: KD (μM) IgG2 TBS

| Kd (human plasma IgG1; [1]) [µM] | Kd (human plasma IgG1; [2]) [µM] | Kd (human plasma IgG1; [3]) [µM] | Kd (human plasma IgG1; [4]) [µM] | Kd (human plasma IgG1; [5]) [µM] | Kd (human plasma IgG1; [6]) [µM] | Kd (human plasma IgG4; [7]) [µM] | Kd (human plasma IgG4; [8]) [µM] | Kd (human plasma IgG4; [9]) [µM] | Kd (human plasma IgG4; [10]) [µM] | Kd (human plasma IgG4; [11]) [µM] | Kd (human plasma IgG4; [12]) [µM] | Kd (human plasma IgG3; [13]) [µM] | Kd (human plasma IgG3; [14]) [µM] | Kd (human plasma IgG3; [15]) [µM] | Kd (human plasma IgG3; [16]) | Kd (human plasma IgG3; [17]) [µM] | Kd (human plasma IgG3; [18]) [µM] | Kd (human plasma IgG2; [19]) [µM] | Kd (human plasma IgG2; [20]) [µM] | Compound | also measured |
| --- | --- | --- | --- | --- | --- | --- | --- | --- | --- | --- | --- | --- | --- | --- | --- | --- | --- | --- | --- | --- | --- |
| > 10 | > 10 | > 10 | > 10 | > 10 | > 10 | > 10 | > 10 | > 10 | > 10 | > 10 | > 10 | > 10 | > 10 | 1 to 2 | 1 ± 0.26 µM | > 10 | > 10 | > 10 | > 10 | CC(=O)N[C@@H](C)C(=O)NCC(=O)N[C@@H](CCCCN)C(=O)N[C@@H](Cc1ccc(O)cc1)C(=O)N[C@@H](Cc1c[nH]c2ccccc12)C(=O)N[C@H]1CSSC[C@@H](C(=O)N2CCC[C@H]2C(=O)N[C@@H](C)C(=O)N[C@@H](CC(N)=O)C(=O)N2CCC[C@H]2C(=O)NCC(=O)N2CCC[C@H]2C(=O)N[C@@H](CCC(=O)O)C(=O)NCC(=O)NCC(=O)NCC(=O)N[C@@H](CCCCN)C(N)=O)NC(=O)[C@H](C(C)C)NC(=O)CNC(=O)[C@H](Cc2c[nH]c3ccccc23)NC(=O)[C@H](CC(C)C)NC(=O)[C@H](CC(N)=O)NC1=O [DX395] | Kd (human plasma IgG1; 10 mM Tris-HCl, pH 7.5, read-out: KD (μM) IgG1 pH 7.5 − salt): > 10 µM; Kd (human plasma IgG4; 10 mM Tris-HCl, pH 7.5, read-out: KD (μM) IgG4 pH 7.5 − salt): > 10 µM; Kd (human plasma IgG2; [21]): > 10 µM; Kd (human plasma IgG2; [22]): > 10 µM; Kd (human plasma IgG2; [23]): > 10 µM; Kd (human plasma IgG2; [24]): > 10 µM; Kd (human plasma IgG2; [25]): > 10 µM |
| > 10 | > 10 | > 10 | > 10 | ~2 | > 10 | > 10 | > 10 | > 10 | > 10 | ~2 | > 10 | 0.3 ± 0.1 | > 10 | 0.04 to 0.3 | ~0.02 µM and 0.02 µM | > 10 | > 10 | > 10 | > 10 | CC(=O)N[C@@H](C)C(=O)NCC(=O)N[C@@H](C)C(=O)N[C@@H](C)C(=O)N[C@H](C(=O)N[C@H]1CSSC[C@@H](C(=O)N[C@H](C(=O)N[C@@H](CC(=O)O)C(=O)N[C@@H](CO)C(=O)N2CCC[C@H]2C(=O)NCC(=O)N2CCC[C@H]2C(=O)N[C@@H](CCC(=O)O)C(=O)NCC(=O)NCC(=O)NCC(=O)N[C@@H](CCCCN)C(N)=O)[C@@H](C)O)NC(=O)[C@H](Cc2ccccc2)NC(=O)[C@H](Cc2c[nH]c3ccccc23)NC(=O)[C@H](CCC(N)=O)NC(=O)[C@H](Cc2ccc(O)cc2)NC(=O)[C@H](Cc2ccc(O)cc2)NC(=O)[C@H](Cc2c[nH]c3ccccc23)NC(=O)[C@H](Cc2ccc(O)cc2)NC(=O)[C@H](CO)NC(=O)[C@H]([C@@H](C)O)NC(=O)[C@H](CO)NC1=O)[C@@H](C)O [DX398] | Kd (human plasma IgG3; 10 nM Tris-HCl, 500 mM Sodium Chloride, pH 7.5, read-out: KD (μM) IgG3 pH 7.5 + salt): 0.3 ± 0.03 µM; Kd (human plasma IgG2; [21]): > 10 µM; Kd (human plasma IgG2; [22]): > 10 µM; Kd (human plasma IgG2; [23]): ~2 µM; Kd (human plasma IgG2; [24]): > 10 µM; Kd (human plasma IgG2; [25]): > 10 µM |
| – | – | – | – | – | – | – | – | – | – | – | – | – | – | – | – | – | – | – | – | Ac-GDRRACSRDWSGALVWCAGHEPGPEGGGK-NH2 (not fully specified (bridges); printed as Ac-GDRRACSRDWSGALVWCAGHEPGPEGGGK-NH2; cysteine pairing not given here) [DX253] | Capacity (mg IgG/mL resin) Static (human IgG; Ligand Density 0.17 μM/mL): 1.1 mg IgG/mL resin; Capacity (mg IgG/mL resin) Static (human IgG; Ligand Density 0.84 μM/mL): 8.5 mg IgG/mL resin; Capacity (mg IgG/mL resin) Static (human IgG; Ligand Density 1.45 μM/mL): 13.5 mg IgG/mL resin; Capacity (mg IgG/mL resin) Static (human IgG; Ligand Density 2.75 μM/mL): 17.4 mg IgG/mL resin |

Reference: patent US20030199671A1, “Binding molecules for Fc-region polypeptides” (priority 2001, published 2003)
